Converted amounts (≈) assume the structure as drawn.
Columns and labels:
[1] = test system: T1, Enterococcus faecalis ATCC29212; assay: microbe, parasite or virus in culture; design: CLSI agar dilution MIC, bacterial growth inhibition
T1 construct: ATCC 29212
From the text: (§1) In accordance with the standards of the Clinical and Laboratory Standards Institute (CLSI),^1 the agar dilution method was used to determine the minimum inhibitory concentration (MIC). E. coli ATCC 25922 served as a quality control for antibiotic susceptibility testing. The tested antimicrobial agents included spectinomycin, tobramycin, streptomycin, netilmicin, paromomycin and amikacin (Table 2).

[2] = test system: T2, Escherichia coli ACTT25922; assay: microbe, parasite or virus in culture; design: CLSI agar dilution MIC, bacterial growth inhibition
T2 construct: ATCC 25922
From the text: as §1

[3] = test system: CN[C@@H]1[C@H](O)[C@H](NC)[C@H]2O[C@@]3(O)C(=O)C[C@@H](C)O[C@H]3O[C@@H]2[C@H]1O; assay: purified protein; type: biochemical, Providencia rettgeri; details: 2 mM ATP, 10 mM MgCl2, 50 mM HEPES pH 7.5, 500 μM DTT, 37 °C

Compound | MIC [1] [µg/mL] | MIC [2] [µg/mL] | Km [3] [µM] | kcat [3] [s⁻¹] | kcat/Km [3] [M⁻¹ s⁻¹]
CC(C)(O/N=C(\C(=O)N[C@@H]1C(=O)N2C(C(=O)[O-])=C(C[n+]3ccccc3)CS[C@H]12)c1csc(N)n1)C(=O)O [ceftazidime] | 128 (≈ 234 µM) | ≤ 1 | – | – | –
O=C(N[C@H](CO)[C@H](O)c1ccc([N+](=O)[O-])cc1)C(Cl)Cl [chloramphenicol] | 4 (≈ 12.4 µM) | 4 (≈ 12.4 µM) | – | – | –
C[C@H]1c2cccc(O)c2C(=O)C2=C(O)[C@]3(O)C(=O)C(C(N)=O)=C(O)[C@@H](N(C)C)[C@@H]3[C@@H](O)[C@@H]21 [doxycycline] | 4 (≈ 9 µM) | 1 (≈ 2.25 µM) | – | – | –
CC(=O)c1c(C)[n+]([O-])c2ccccc2[n+]1[O-] [mequindox] | 64 (≈ 293 µM) | 8 (≈ 36.7 µM) | – | – | –
CN[C@@H]1[C@H](O[C@H]2[C@H](O[C@H]3[C@H](O)[C@@H](O)[C@H](N=C(N)N)[C@@H](O)[C@@H]3N=C(N)N)O[C@@H](C)[C@]2(O)C=O)O[C@@H](CO)[C@H](O)[C@H]1O [streptomycin] | 128 (≈ 220 µM) | 8 (≈ 13.8 µM) | – | – | –
CN(C)[C@@H]1C(O)=C(C(N)=O)C(=O)[C@@]2(O)C(O)=C3C(=O)c4c(O)cccc4[C@@](C)(O)[C@H]3C[C@@H]12 [tetracycline] | 8 (≈ 18 µM) | 1 (≈ 2.25 µM) | – | – | –
C=C[C@]1(C)C[C@@H](OC(=O)CSCCN(CC)CC)[C@]2(C)[C@H](C)CC[C@]3(CCC(=O)[C@H]32)[C@@H](C)[C@@H]1O [tiamulin] | 64 (≈ 130 µM) | > 512 | – | – | –
ANT(9)-Id (Providencia rettgeri) | – | – | 8.94 ± 2.50 | 232 ± 59.8 | 2.62e+07 ± 2.95e+06

— PMC11669914, “Identification and characterization of a novel chromosome-encoded aminoglycoside O-nucleotidyltransferase gene, ant(9)-Id, in Providencia sp. TYF-12 isolated from the marine fish intestine” (Frontiers in Microbiology, 2024)
